Measured values: ChEMBL document CHEMBL1141988, “Bis(aminopyrrolidine)-derived ureas (APUs) as potent MCH1 receptor antagonists” (Bioorg Med Chem Lett, 2005)

The compounds below were run against Melanin-concentrating hormone receptor 1 (Homo sapiens, UniProt Q99705) (assay: Displacement of [125I]MCH from human Melanin-concentrating hormone 1 (MCH1) receptor modified for optimal expression in HEK293 cells).
Type: cell-based

Chain of Melanin-concentrating hormone receptor 1 (Q99705 whole entry): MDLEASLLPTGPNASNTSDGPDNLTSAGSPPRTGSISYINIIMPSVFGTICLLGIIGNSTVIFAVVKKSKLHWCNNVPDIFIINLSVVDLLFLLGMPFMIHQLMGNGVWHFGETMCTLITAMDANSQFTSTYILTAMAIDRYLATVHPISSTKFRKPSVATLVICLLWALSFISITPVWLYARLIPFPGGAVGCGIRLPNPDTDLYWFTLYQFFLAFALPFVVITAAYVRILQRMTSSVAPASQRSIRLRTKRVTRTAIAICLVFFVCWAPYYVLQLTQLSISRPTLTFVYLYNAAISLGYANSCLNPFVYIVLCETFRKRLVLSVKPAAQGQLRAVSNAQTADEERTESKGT

SMILES | Ki [nM]
CN(C(=O)c1ccc(-c2ccc(C(F)(F)F)cc2)cc1)C1CCN(C(=O)N(C)C2CCN(CCS(=O)(=O)N3CCCC3)C2)C1 (centres undefined) | 82
CN(C(=O)c1ccc(-c2ccc(C(F)(F)F)cc2)cc1)C1CCN(C(=O)N(C)C2CCN(CCCc3ccc(Cl)cc3)C2)C1 (centres undefined) | 7.3
CN(C(=O)CCCC(=O)c1ccc(Cl)cc1)C1CCN(C(=O)N(C)C2CCN(CCCc3ccccc3)C2)C1 (centres undefined) | 48
CN(C(=O)c1ccc(-c2ccc(C(F)(F)F)cc2)cc1)C1CCN(C(=O)N(C)C2CCN(CCOc3ccc(Cl)cc3)C2)C1 (centres undefined) | 18
CN1CCC(N(C)C(=O)CCCN(C)C(=O)c2ccc(-c3ccccc3)cc2)C1 (centres undefined) | 142
CN(C(=O)c1ccc(-c2ccc(C(F)(F)F)cc2)cc1)C1CCN(C(=O)N(C)C2CCN(CCO)C2)C1 (centres undefined) | 96
CN(C(=O)c1ccc(-c2ccc(C(F)(F)F)cc2)cc1)C1CCN(C(=O)N(C)C2CCN(CCS(=O)(=O)c3ccc(Cl)cc3)C2)C1 (centres undefined) | 14
CN(C(=O)c1ccc(Oc2ccc(F)cc2)cc1)C1CCN(C(=O)N(C)C2CCN(CCCc3ccc(Cl)cc3)C2)C1 (centres undefined) | 5.3
CN(C)CC1CCc2cc(NC(=O)c3ccc(-c4ccc(F)cc4)cc3)ccc2C1 (centres undefined) | 5.5
